SMILES strings stand for the structures. Where a name gives a salt, the structure may show the parent alone. Some results are limits rather than exact numbers.

The first assay concerns the target T1, parathyroid cell calcium receptor (Bos taurus, UniProt P35384).
T1 sequence (P35384 21-1085 limits assumed): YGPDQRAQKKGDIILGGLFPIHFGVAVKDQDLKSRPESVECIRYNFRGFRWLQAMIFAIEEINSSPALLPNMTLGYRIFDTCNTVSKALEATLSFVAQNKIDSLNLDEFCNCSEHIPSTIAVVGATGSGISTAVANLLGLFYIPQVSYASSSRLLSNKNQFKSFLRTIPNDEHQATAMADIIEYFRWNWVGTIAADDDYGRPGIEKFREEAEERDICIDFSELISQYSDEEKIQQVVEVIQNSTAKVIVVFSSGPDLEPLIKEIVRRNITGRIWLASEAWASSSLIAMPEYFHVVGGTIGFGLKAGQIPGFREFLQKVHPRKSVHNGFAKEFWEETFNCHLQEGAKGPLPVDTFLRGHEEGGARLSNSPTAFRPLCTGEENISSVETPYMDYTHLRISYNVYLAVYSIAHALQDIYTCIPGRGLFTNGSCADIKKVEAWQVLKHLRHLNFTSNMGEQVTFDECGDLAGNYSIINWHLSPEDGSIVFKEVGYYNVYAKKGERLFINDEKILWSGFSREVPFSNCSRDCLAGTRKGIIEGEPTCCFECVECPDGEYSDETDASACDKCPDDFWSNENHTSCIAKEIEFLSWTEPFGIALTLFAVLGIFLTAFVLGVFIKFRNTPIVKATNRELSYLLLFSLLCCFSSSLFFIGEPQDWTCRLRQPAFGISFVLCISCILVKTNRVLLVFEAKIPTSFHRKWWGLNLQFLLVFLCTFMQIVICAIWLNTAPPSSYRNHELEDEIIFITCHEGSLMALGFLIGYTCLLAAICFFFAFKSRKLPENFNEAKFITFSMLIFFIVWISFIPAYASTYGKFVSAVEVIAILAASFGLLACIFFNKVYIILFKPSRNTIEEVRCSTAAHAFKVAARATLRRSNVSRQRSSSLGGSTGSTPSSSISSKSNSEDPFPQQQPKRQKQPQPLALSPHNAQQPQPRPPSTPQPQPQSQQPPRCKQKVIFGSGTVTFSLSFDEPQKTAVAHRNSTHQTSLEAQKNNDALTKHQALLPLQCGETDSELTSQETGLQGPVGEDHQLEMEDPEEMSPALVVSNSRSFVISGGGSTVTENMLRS
As to the kind of experiment: cell-based. It is filed as cell-based. Particulars: 1 μM.
Experimental: For example,.bovine parathyroid cells loaded with fura-2 are initially suspended in buffer containing 0.5 mM CaCl2. A test substance is added to the cuvette in a small volume (5-15 μl) and changes in the fluorescence signal are measured. Cumulative increases in the concentration of the test substance are made in the cuvette until some predetermined concentration is achieved or no further changes in fluorescence are noted.
This section describes procedures used to obtain and treat parathyroid cells from calves and humans. […] Human parathyroid glands, were obtained from patients undergoing surgical removal of parathyroid tissue for primary or uremic hyperparathyroidism (uremic HPT), and were treated similarly to bovine tissue.
Glands were trimmed of excess fat and connective tissue and then minced with fine scissors into cubes approximately 2-3 mm on a side. Dissociated parathyroid cells were prepared by collagenase digestion and then purified by centrifugation in Percoll buffer. The resultant parathyroid cell preparation was essentially devoid of red blood cells, adipocytes, and capillary tissue as assessed by phase contrast microscopy and Sudan black B staining. Dissociated and purified parathyroid cells were present as small clusters containing 5 to 20 cells.
The cells were then transferred to plastic flasks (75 or 150 cm^2 ; Falcon) and incubated overnight at 37° C. in a humid atmosphere of 5% CO2. No serum is added to these overnight cultures, since its presence allows the cells to attach to the plastic, undergo proliferation, and dedifferentiate. Cells cultured under the above conditions were readily removed from the flasks by decanting, and show the same viability as freshly prepared cells.
The cells were then pelleted, resuspended in the same buffer, but lacking the ester, and incubated a further 15 minutes at 37° C. The cells were subsequently washed twice with PCB containing 0.5 mM CaCl2 and 0.5% BSA and maintained at room temperature (about 20° C.). Immediately before use, the cells were diluted five-fold with prewarmed 0.5mM CaCl2 -PCB to obtain a final BSA concentration of 0.1%. The concentration of cells in the cuvette used for fluorescence recording was 1-2×10^6 /ml.
The fluorescence of indicator-loaded cells was measured at 37° C. in a spectrofluorimeter (Biomedical Instrumentation Group, University of Pennsylvania, Philadelphia, Pa.) equipped with a thermostated cuvette holder and magnetic stirrer using excitation and emission wavelengths of 340 and 510 nm, respectively. […] Leakage of dye is dependent on temperature and most occurs within the first 2 minutes after warming the cells in the cuvette. Dye leakage increases only very slowly thereafter. To correct the calibration for dye leakage, cells were placed in the cuvette and stirred at 37° C. for 2-3 minutes. The cell suspension was then removed, the cells pelleted, and the supernatant returned to a clean cuvette. […] This estimate was subtracted from the apparent Fmin.
Dissociated bovine parathyroid cells were purified on gradients of Percoll and cultured overnight in serum-free medium. […] That is,
`CC1=C(C(=O)OC(C)C)C(c2cccc3nonc23)C([N+](=O)[O-])=C(C)N1` (single isomer, unassigned; (-)) [(-) 202-791, reference compound]: the “effect on basal [Ca^2+]i or increases evoked by extracellular Ca^2+” value is on record as “None of the dihydropyridines tested”.
Same read-out and setting: the value for `COC(=O)C1=C(C)NC(C)=C([N+](=O)[O-])C1c1ccccc1C(F)(F)F` (stereo not shown) [BAY K 8644, reference compound] was “None of the dihydropyridines tested”.

Staying with this assay, now noted: 400 μM.
As to `N=C(N)NCCC[C@H](N)C(=O)NCCCNCCCNCCCCCNC(=O)[C@H](CC(N)=O)NC(=O)Cc1ccc(O)cc1O` [Argiotoxin-636, reference compound], the “increases in [Ca^2+]i” value was “did not elicit increases” and the “potentiation of cytosolic Ca^2+ responses to extracellular Ca^2+” value is “did potentiate”.

Staying with this assay, now noted: 100 to 300 μM.
`N=C(N)NCCC[C@H](N)C(=O)NCCCNCCCNCCCCCNC(=O)[C@H](CC(N)=O)NC(=O)Cc1ccc(O)cc1O` [Argiotoxin-636, reference compound]: the “increases in [Ca^2+]i” value is “had no effect”.

The same assay, now with this note: Table 7; parathyroid cell calcium receptor; read-out: EC50.
For the compound `COc1ccc(OC)c([C@@H](C)NCCCc2ccccc2)c1` [7Z(R-)], the EC50 (in general, the concentration that produces a half-maximal response) was more than 30000 nM.
Same read-out and setting: with `COc1ccc(OC)c([C@H](C)NCCCc2ccccc2)c1` [7Z(S-)] the figure was more than 100000 nM; with `c1ccc(CNCCC(c2ccccc2)c2ccccc2)cc1` [Compound 1A], 166000 nM.
In the case of `CC(NCCCc1ccccc1)c1ccccc1` (stereo not shown) [Compound 1D], the EC50 stood at 48000 nM.
Regarding `CCC(NCCC(c1ccccc1)c1ccccc1)c1ccccc1` (stereo not shown) [Compound 1E], the EC50 is 123000 nM.
With `CC(NCCCCc1ccccc1)c1ccccc1` (stereo not shown) [Compound 1S], the EC50 turned out to be 128000 nM.
For `C[C@H](NCCCc1ccccc1)C1CCCCC1` [Compound 7Y], the EC50 is more than 30000 nM.
As for `COc1cccc([C@H](C)NCCCc2ccc(C)cc2)c1` [Compound 8Y], the EC50 is more than 30000 nM.

Still in this assay, the particulars now being: Table 8 (arylalkylamine calcimimetics); parathyroid cell calcium receptor; read-out: EC50.
As to `COc1cccc([C@@H](C)NC2CCc3ccccc3C2)c1` (stereo partly shown) [5W/5Y], the EC50 was found to be 3600 nM.
Turning to `CC(NCCC(c1ccccc1)c1ccccc1)c1cccc2ccccc12` (stereo not shown) [Compound 3U], the EC50 is 640 nM.
Consider `COc1cccc([C@@H](C)NCCCc2cccc(F)c2)c1` [Compound 4N], for which the EC50 was 800 nM.
For the compound `COc1cccc([C@@H](C)NCCCc2ccc(F)cc2)c1` [Compound 4P], the EC50 was found to be 1600 nM.
With `COc1cccc(C(C)NCCC(C)c2ccccc2Cl)c1` (stereo not shown) [Compound 4Y], the EC50 turned out to be 1300 nM.
With `COc1cccc(C(C)NC(C)c2cccc3ccccc23)c1` (stereo not shown) [Compound 6E], the EC50 was 2700 nM.
`CCOc1cccc([C@@H](C)NCCCc2ccccc2)c1` [Compound 6R]: the EC50 turned out to be 3400 nM.
In the case of `CCOc1cccc([C@@H](C)NCCCc2ccccc2Cl)c1` [Compound 6T], the EC50 is 2900 nM.
With `COc1cccc([C@@H](C)NCCCc2ccccc2OC)c1` [Compound 8U, (R)-(+)-N-3-(2-Methoxyphenyl)-1-propyl-3-methoxy-α-methylbenzylamine hydrochloride], the EC50 is 440 nM.
As for `COc1cccc([C@@H](C)NCCCc2ccc(C)cc2)c1` [Compound 8X], the EC50 is 760 nM.
On to `C[C@@H](NCc1ccc2ccccc2c1)c1cccc2ccccc12` [Compound 9C], for which the EC50 came out at 600 nM.
Take `CC(C)C(N[C@H](C)c1cccc2ccccc12)c1ccc2ccccc2c1` (stereo partly shown) [Compound 10F]: the half-maximal effective concentration (EC50) was 890 nM.
`CCOC(=O)COc1cccc([C@@H](C)NCc2ccc3ccccc3c2)c1` [Compound 11D]: the EC50 was found to be 1800 nM.
Consider `COc1cccc([C@@H](C)NCCCc2ccccc2C)c1` [Compound 12U, (R)-N-3-(2-Methylphenyl)-1-propyl-3-methoxy-α-methylbenzylamine hydrochloride], for which the EC50 came out at 1200 nM.

The assay is the same for the next values; noted with them: bovine parathyroid cells, or Xenopus oocytes expressing calcium receptors.
On to `N[C@@]1(C(=O)O)CC[C@@H](C(=O)O)C1` (relative stereo) [trans-ACPD, reference compound], for which the “response to mGluR agonists” value was “did not respond”.

Still in this assay, the particulars now being: in words.
Turning to `CC(NCCCc1ccccc1)c1ccccc1` (stereo not shown) [Compound 1D], the relative potency result is given as “nearly as potent as the parent molecule”.

The assay is the same for the next values; noted with them: parathyroid cell calcium receptor; […]; read-out: EC50.
With `COc1cccc([C@@H](C)NCCCc2ccccc2OC)c1` [Compound 8U, (R)-(+)-N-3-(2-Methoxyphenyl)-1-propyl-3-methoxy-α-methylbenzylamine hydrochloride], the EC50 is less than 5000 nM.
For the compound `COc1cccc([C@@H](C)NCCCc2ccccc2C)c1` [Compound 12U, (R)-N-3-(2-Methylphenyl)-1-propyl-3-methoxy-α-methylbenzylamine hydrochloride], the EC50 was less than 5000 nM.
